Literature values, collected in patent US20220160693A1, “PHARMACEUTICAL COMPOSITION OF PROLYL HYDROXYLASE INHIBITOR AND PREPARATION METHOD THEREFOR” (Jiangsu Hengrui Medicine Co., Ltd., priority 2019, published 2022).

System: prolyl hydroxylase

Inhibition effect on prolyl hydroxylase (in words): excellent inhibition effect
SMILES: O=C(O)CNC(=O)c1ncc(C#CCOc2ccc(Cl)cc2)cc1O [compound of formula (I), 2-(3-hydroxy-5-(3-p-chlorophenoxypropyn-1-yl))picolinamido acetic acid]
